Experiments:
[1] = test system: p52 (NF-kB2) nuclear translocation in HeLa cells; assay: p52 (NF-kB2) nuclear translocation assay in HeLa cells, anti-lymphotoxin beta receptor antibody stimulated (non-classical NF-kB signaling), high content imaging; format: cell-based; conditions: Homo sapiens, 100 ng/mL anti-lymphotoxin beta receptor antibody for 5 hours, read-out: p52 HeLa Transloc Assay (IC50)
Experimental: (§1) Several assays were developed to profile the cellular activities of NIK inhibitors.
(§2) (2) A second set of cell assay are used to define the selectivity of NIK inhibitors toward inhibition of classical vs. non-classical NF-kB signaling and rely on quantification of the nuclear translocation of p52 (NF-kB2) and REL-A (p65) using high content cellular imaging. For the p52 (non-classical NF-kB signaling) nuclear translocation assay, HeLa cells are treated with different concentrations of compounds (0.2% DMSO final) in medium containing 10% fetal bovine serum and then stimulated with 100 ng/mL of an anti-lymphotoxin beta receptor antibody (R&D Systems) for 5 hours. In the REL-A nuclear translocation assay, HeLa cells are incubated with compounds (0.2% DMSO final) for 4.5 hours in medium containing 10% fetal bovine serum before stimulating them with 10 ng/mL tumor necrosis factor (TNF)-α (R&D Systems) for 30 minutes. Cells are fixed with 4% paraformaldehyde, permeabilized by adding 0.1% Triton X-100 in phosphate buffered saline, and then are incubated with either 2 ug/mL anti-p52 antibody (Millipore) or 400 ng/mL anti-REL-A (p65) antibody (Santa Cruz Biotechnology). Finally, the cells are incubated with an Alexa488-labeled secondary antibody (Invitrogen) and DRAQ5 DNA stain (Biostatus). Imaging is carried out using an Opera reader (Perkin Elmer) and data are analyzed with the aid of Acapella software (Perkin Elmer). The p52 or REL-Atranslocation into the nucleus is quantified by the ratio of the nuclear to cytoplasmic signal intensity. […] The compounds in listed in Table 1 have the corresponding inhibitory value (IC50 in micromolar) for NIK p52 Translocation Assay as set forth in Table 2.
(§3) The compounds in listed in Table 1 have the corresponding inhibitory values (IC50 in micromolar) for the Translocation Assays as set forth in Table 2.

[2] = test system: REL-A (p65) nuclear translocation in HeLa cells; assay: REL-A (p65) nuclear translocation assay in HeLa cells, TNF-α stimulated (classical NF-kB signaling), high content imaging; format: cell-based; conditions: Homo sapiens, HeLa, compound 4.5 h, then 10 ng/mL TNF-α for 30 minutes, read-out: REL-A HeLa Transloc Assay (IC50)
Experimental: as §1, §2, §3

[3] = molecular target: T1, nuclear factor-kappa B (NF-kB)-inducing kinase (NIK) (Homo sapiens, UniProt Q99558); assay: NIK enzyme inhibition assay (Transcreener ADP fluorescence polarization, NIK ADP-FP); format: biochemical
T1 construct: made in house; host or cells: baculovirus-infected insect cells
T1 sequence (Q99558 whole entry): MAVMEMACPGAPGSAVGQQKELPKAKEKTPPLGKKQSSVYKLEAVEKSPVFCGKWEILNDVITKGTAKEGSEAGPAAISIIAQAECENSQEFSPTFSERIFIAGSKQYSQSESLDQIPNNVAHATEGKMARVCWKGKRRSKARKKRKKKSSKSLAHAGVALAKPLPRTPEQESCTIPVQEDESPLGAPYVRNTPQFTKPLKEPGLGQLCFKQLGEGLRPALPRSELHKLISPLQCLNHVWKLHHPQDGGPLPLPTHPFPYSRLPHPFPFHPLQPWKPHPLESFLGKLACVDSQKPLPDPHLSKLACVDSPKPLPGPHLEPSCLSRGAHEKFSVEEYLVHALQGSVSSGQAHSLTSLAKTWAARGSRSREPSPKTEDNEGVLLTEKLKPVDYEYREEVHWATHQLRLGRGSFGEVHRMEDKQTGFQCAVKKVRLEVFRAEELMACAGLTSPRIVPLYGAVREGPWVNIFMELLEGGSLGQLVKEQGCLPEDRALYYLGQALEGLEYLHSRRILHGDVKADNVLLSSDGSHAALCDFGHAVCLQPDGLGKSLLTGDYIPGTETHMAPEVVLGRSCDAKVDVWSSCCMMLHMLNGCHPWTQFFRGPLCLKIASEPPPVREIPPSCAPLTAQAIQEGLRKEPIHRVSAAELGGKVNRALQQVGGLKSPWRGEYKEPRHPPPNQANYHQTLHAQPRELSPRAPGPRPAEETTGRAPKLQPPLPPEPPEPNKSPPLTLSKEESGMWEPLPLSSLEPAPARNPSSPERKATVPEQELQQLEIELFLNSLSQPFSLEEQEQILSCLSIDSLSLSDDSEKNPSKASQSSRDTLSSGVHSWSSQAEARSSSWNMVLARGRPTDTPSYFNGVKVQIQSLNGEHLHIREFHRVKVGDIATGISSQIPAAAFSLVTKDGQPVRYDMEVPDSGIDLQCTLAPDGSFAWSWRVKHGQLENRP

SMILES | IC50 [1] [nM] | IC50 [2] [µM] | Ki [3] [nM]
CCNc1ccc(-c2ccc(C#N)c(C#C[C@]3(O)CCN(C)C3=O)c2)nc1C(N)=O [Example 119, 6-[4-cyano-3-[2-[(3R)-3-hydroxy-1-methyl-2-oxo-pyrrolidin-3-yl]ethynyl]phenyl]-3-(ethylamino) pyridine-2-carboxamide] | 108 | ≥ 2 | 0.1
Cc1ccc(-c2cc(C(N)=O)nc(-c3cccc(C#C[C@]4(O)CCN(C)C4=O)c3)n2)cn1 [Example 95, 2-[3-[2-[(3R)-3-hydroxy-1-methyl-2-oxo-pyrrolidin-3-yl]ethynyl]phenyl]-6-(6-methyl-3-pyridyl)pyrimidine-4-carboxamide] | 55.2 | ≥ 20 | 0.49
CN1CC[C@@](O)(C#Cc2cccc(-c3cc(-c4ccnn4C)cc(C(N)=O)n3)c2)C1=O [Example 144, 6-[3-[2-[(3R)-3-hydroxy-1-methyl-2-oxo-pyrrolidin-3-yl]ethynyl]phenyl]-4-(2-methylpyrazol-3-yl) pyridine-2-carboxamide] | 199 | ≥ 2 | 0.69
CN1CC[C@@](O)(C#Cc2cc3c(c(-c4cccc(C(N)=O)n4)c2)OCC3)C1=O [Example 77, 6-[5-[2-[(3R)-3-hydroxy-1-methyl-2-oxo-pyrrolidin-3-yl]ethynyl]-2,3-dihydrobenzofuran-7-yl] pyridine-2-carboxamide] | 247 | ≥ 20 | 0.99
CN1CC[C@@](O)(C#Cc2cc(-c3ccc(N)c(C(N)=O)n3)c(F)cc2F)C1=O [Example 118, 3-amino-6-[2,4-difluoro-5-[2-[(3R)-3-hydroxy-1-methyl-2-oxo-pyrrolidin-3-yl]ethynyl]phenyl]pyridine-2-carboxamide] | 19 | ≥ 2 | 0.05
CN1CC[C@@](O)(C#Cc2cccc(-c3nc(N[C@@H]4CCOC4)cc(C(N)=O)n3)c2)C1=O [Example 31, 2-[3-[2-[(3R)-3-hydroxy-1-methyl-2-oxo-pyrrolidin-3-yl]ethynyl]phenyl]-6-[[(3R)-tetrahydrofuran-3-yl]amino] pyrimidine-4-carboxamide] | 479 | > 20 | 0.93
CNc1cc(C(N)=O)nc(-c2cccc(C#C[C@]3(O)CCN(C)C3=O)c2)n1 [Example 12, 2-[3-[2-[(3R)-3-hydroxy-1-methyl-2-oxo-pyrrolidin-3-yl]ethynyl]phenyl]-6-(methylamino)pyrimidine-4-carboxamide] | 236 | > 20 | 0.33
CN1CC[C@@](O)(C#Cc2ccc(F)c(-c3cccc(C(N)=O)n3)c2)C1=O [Example 92, 6-[2-fluoro-5-[2-[(3R)-3-hydroxy-1-methyl-2-oxo-pyrrolidin-3-yl]ethynyl]phenyl]pyridine-2-carboxamide] | 133 | ≥ 20 | 0.39
CN1CC[C@@](O)(C#Cc2cccc(-c3ccc(N)c(C(N)=O)n3)c2)C1=O [Example 63, 3-amino-6-[3-[2-[(3R)-3-hydroxy-1-methyl-2-oxo-pyrrolidin-3-yl]ethynyl]phenyl]pyridine-2-carboxamide] | 10.7 | ≥ 20 | –
CN1CC[C@@](O)(C#Cc2cccc(-c3cncc(C(N)=O)n3)c2)C1=O [Example 154, 6-[3-[2-[(3R)-3-hydroxy-1-methyl-2-oxo-pyrrolidin-3-yl]ethynyl]phenyl]pyrazine-2-carboxamide] | 400 | > 2 | –
CN1CC[C@@](O)(C#Cc2cccc(-c3ccnc(C(N)=O)n3)c2)C1=O [Example 3, 4-[3-[2-[(3R)-3-hydroxy-1-methyl-2-oxo-pyrrolidin-3-yl]ethynyl]phenyl]pyrimidine-2-carboxamide] | 674 | > 20 | –
CN1CC[C@@](O)(C#Cc2cccc(-c3cc4ccccc4c(C(N)=O)n3)c2)C1=O [Example 40, 3-[3-[2-[(3R)-3-hydroxy-1-methyl-2-oxo-pyrrolidin-3-yl]ethynyl]phenyl] isoquinoline-1-carboxamide] | 7.8 | > 8 | –
COc1cc(C(N)=O)nc(-c2cccc(C#C[C@]3(O)CCN(C)C3=O)c2)c1 [Example 90, 6-[3-[2-[(3R)-3-hydroxy-1-methyl-2-oxo-pyrrolidin-3-yl]ethynyl]phenyl]-4-methoxy-pyridine-2-carboxamide] | 16.8 | ≥ 20 | –
CN1CC[C@@](O)(C#Cc2cc(-c3cnc(N)c(C(N)=O)n3)c3ncsc3c2)C1=O [Example 196, 3-amino-6-[6-[2-[(3R)-3-hydroxy-1-methyl-2-oxo-pyrrolidin-3-yl]ethynyl]-1,3-benzothiazol-4-yl]pyrazine-2-carboxamide] | – | – | 1
COc1cc(C(N)=O)nc(-c2cccc(C#C[C@]3(O)CCN(C)C3=O)c2)n1 [Example 29, 2-[3-[2-[(3R)-3-hydroxy-1-methyl-2-oxo-pyrrolidin-3-yl]ethynyl]phenyl]-6-methoxy-pyrimidine-4-carboxamide] | 46.6 | > 20 | –
Cc1nnc([C@](C)(O)C#Cc2cccc(-c3nccc(C(N)=O)n3)c2)o1 [Example 138, 2-[3-[(3R)-3-hydroxy-3-(5-methyl-1,3,4-oxadiazol-2-yl)but-1-ynyl]phenyl]pyrimidine-4-carboxamide] | – | – | 60.2
CN1CC[C@@](O)(C#Cc2cccc(-c3cc(N4CC(F)(F)C4)cc(C(N)=O)n3)c2)C1=O [Example 200, 4-(3,3-difluoroazetidin-1-yl)-6-[3-[2-[(3R)-3-hydroxy-1-methyl-2-oxo-pyrrolidin-3-yl]ethynyl]phenyl]pyridine-2-carboxamide] | – | – | < 0.05
CN1CC[C@@](O)(C#Cc2cc(F)c(F)c(-c3ccc(N)c(C(N)=O)n3)c2)C1=O [Example 194, 3-amino-6-[2,3-difluoro-5-[2-[(3R)-3-hydroxy-l-methyl-2-oxo-pyrrolidin-3-yl]ethynyl]phenyl]pyridine-2-carboxamide] | – | – | < 0.05
CN1CC[C@@](O)(C#Cc2cccc(-c3cc(CO)cc(C(N)=O)n3)c2)C1=O [Example 197, 4-(hydroxymethyl)-6-[3-[2-[(3R)-3-hydroxy-1-methyl-2-oxo-pyrrolidin-3-yl]ethynyl]phenyl]pyridine-2-carboxamide] | – | – | 0.8
CC(C)n1ncc2c(-c3cccc(C#C[C@]4(O)CCN(C)C4=O)c3)nc(C(N)=O)cc21 [Example 115, 4-[3-[2-[(3R)-3-hydroxy-1-methyl-2-oxo-pyrrolidin-3-yl]ethynyl]phenyl]-1-isopropyl-pyrazolo[4,3-c]pyridine-6-carboxamide] | – | – | 1.77
CN1CC[C@@](O)(C#Cc2cccc(-c3cc(-n4ccnc4)cc(C(N)=O)n3)c2)C1=O [Example 182, 6-[3-[2-[(3R)-3-hydroxy-l-methyl-2-oxo-pyrrolidin-3-yl]ethynyl]phenyl]-4-imidazol-1-yl-pyridine-2-carboxamide] | – | – | 0.17
CN1CC[C@@](O)(C#Cc2cccc(-c3cccc(C(N)=O)n3)c2)C1=O [Example 1, 6-[3-[2-[(3R)-3-hydroxy-1-methyl-2-oxo-pyrrolidin-3-yl]ethynyl]phenyl]pyridine-2-carboxamide] | 93.2 | > 20 | –
CN1CC[C@@](O)(C#Cc2cccc(-c3cc(NC4COC4)cc(C(N)=O)n3)c2)C1=O [Example 163, 6-[3-[2-[(3R)-3-hydroxy-1-methyl-2-oxo-pyrrolidin-3-yl]ethynyl]phenyl]-4-(oxetan-3-ylamino)pyridine-2-carboxamide] | – | – | 0.21

Reference: US20160185797A1, “ALKYNYL ALCOHOLS AND METHODS OF USE” (Genentech, Inc., priority 2013, published 2016)
